{"source": "paper PMC10360169", "about": "(Frontiers in Immunology, 2023)", "key": {"Acar3": {"tested_on": "Acar3", "type": "binding, great reed warbler Acrocephalus arundinaceus"}, "HLA-B*35:01": {"biological_target": "HLA-B*35:01 (Homo sapiens, UniProt P01889, A329T/A93T/A95T/C349S/D201E/D98Y/E176V/E187L/E204Q/E69T/I218V/K202T/L119I/Q94N/R155S/R180L/S121R/S35A/S48A/T118I/V127L/V306I/V36M/Y140S/Y91F)", "set-up": "method as in ref [40]-[43] = [40]; 40 Rasmussen M Harndahl M Kristensen A Nielsen I Jorgensen K Stryhn A . Large Scale analysis of peptide - HLA-I stability . ( 2014 ). || [41]; 41 Harndahl M Lamberth K Justesen S Røder G Madsen M Nielsen M . Large Scale analysis of peptide-HLA class I interactions . ( 2007 ). || [42]; 42 Harndahl M Lamberth K Justesen S Røder G Madsen M Sylvester-Hvid C . Large Scale analysis of peptide-HLA class I interactions . ( 2006 ). || [43]; 43 Harndahl M Lamberth K Røder G Justesen S Madsen M Nielsen M . Large Scale analysis of peptide-HLA class I interactions . ( 2010 ).", "conditions": "IEDB; threshold minimum affinity of 500 nM or minimum half-life of 1 h; ref [40]-[43]; cited from earlier work"}, "HLA-A*32:07": {"biological_target": "HLA-A*32:07 (Homo sapiens, UniProt P04439, A270S/D101S/D185E/E176V/E277Q/F133L/F33S/G103R/G107R/G231S/H175R/I121M/I218V/I322F/K168Q/L105A/L300P/L318F/M331R/P208A/P217A/Q94H/R106L/R138Q/S129P/T104I/T323A/T345S/V100E/V321M/V358M)", "set-up": "method as in ref [40], [41], [43] = [40]; 40 Rasmussen M Harndahl M Kristensen A Nielsen I Jorgensen K Stryhn A . Large Scale analysis of peptide - HLA-I stability . ( 2014 ). || [41]; 41 Harndahl M Lamberth K Justesen S Røder G Madsen M Nielsen M . Large Scale analysis of peptide-HLA class I interactions . ( 2007 ). || [43]; 43 Harndahl M Lamberth K Røder G Justesen S Madsen M Nielsen M . Large Scale analysis of peptide-HLA class I interactions . ( 2010 ).", "conditions": "IEDB; threshold minimum affinity of 500 nM or minimum half-life of 1 h; ref [40], [41], [43]; cited from earlier work"}, "HLA-A*32:15": {"biological_target": "HLA-A*32:15 (Homo sapiens, UniProt P04439, A270S/D101S/D185E/E176V/E277Q/E87N/F133L/G103R/G107R/G231S/H175R/I121M/I218V/I322F/K168Q/L105A/L300P/L318F/M331R/P208A/P217A/Q86R/Q94H/R106L/R138Q/S129P/T104I/T323A/T345S/V100E/V321M/V358M)", "set-up": "method as in ref [40], [41], [43] = [40]; 40 Rasmussen M Harndahl M Kristensen A Nielsen I Jorgensen K Stryhn A . Large Scale analysis of peptide - HLA-I stability . ( 2014 ). || [41]; 41 Harndahl M Lamberth K Justesen S Røder G Madsen M Nielsen M . Large Scale analysis of peptide-HLA class I interactions . ( 2007 ). || [43]; 43 Harndahl M Lamberth K Røder G Justesen S Madsen M Nielsen M . Large Scale analysis of peptide-HLA class I interactions . ( 2010 ).", "conditions": "IEDB; threshold minimum affinity of 500 nM or minimum half-life of 1 h; ref [40], [41], [43]; cited from earlier work"}, "HLA-A*68:23": {"biological_target": "HLA-A*68:23 (Homo sapiens, UniProt P04439, A269V/D185E/E176V/E277Q/E87N/F33Y/G231S/I121R/I166T/I218V/L180W/L300P/L318F/N151K/P208A/P217A/Q86R/R169H/T345S)", "set-up": "method as in ref [40], [41], [43] = [40]; 40 Rasmussen M Harndahl M Kristensen A Nielsen I Jorgensen K Stryhn A . Large Scale analysis of peptide - HLA-I stability . ( 2014 ). || [41]; 41 Harndahl M Lamberth K Justesen S Røder G Madsen M Nielsen M . Large Scale analysis of peptide-HLA class I interactions . ( 2007 ). || [43]; 43 Harndahl M Lamberth K Røder G Justesen S Madsen M Nielsen M . Large Scale analysis of peptide-HLA class I interactions . ( 2010 ).", "conditions": "IEDB; threshold minimum affinity of 500 nM or minimum half-life of 1 h; ref [40], [41], [43]; cited from earlier work"}, "HLA-A*24:02": {"biological_target": "HLA-A*24:02 (Homo sapiens, UniProt P04439, D101N/D140Y/D185E/E176V/E190D/F33S/G103R/G107R/I119L/I121M/I306V/K335N/L105A/L180Q/L300P/N151K/N90K/Q86E/Q94H/R106L/R138H/R89G/T104I/T345S/V100E/W191G/Y123F)", "conditions": "below the IEDB thresholds; no reference given; cited from earlier work"}, "HLA-B*58:01": {"biological_target": "HLA-B*58:01 (Homo sapiens, UniProt P01889, A329T/C349S/D201E/D98Y/E176V/E187L/E204Q/E69T/G107R/I218V/I90N/K202T/L105A/L119I/N104I/N87E/Q89R/Q94S/R106L/R155S/R180L/R86G/S101N/S121R/S35A/S48A/T118I/V127L/V306I/V36M/Y140S/Y91M)", "conditions": "IEDB; threshold minimum affinity of 500 nM or minimum half-life of 1 h; ref [40], [41], [43]; cited from earlier work"}}, "data": [{"sequence": "MTMITPPTF [P3]", "values": [{"measurement": "Stability T½ of Acar3 in complex with the peptide", "setting": "Acar3; Table S1, top 94 PSCPL-scoring peptides, SPA, 10µM peptide, 125I β2m, folding over night at 18°C, dissociation measured up to 24 hours at 37°C", "value": 10.3, "unit": "h"}, {"measurement": "Stability T½ (h), peptide - Acar3", "setting": "Acar3; Table S5, half-life estimated from dissociation in scintillation proximity assay, Acar3", "value": 10.3, "unit": "h"}, {"measurement": "binding to HLA-B*35:01", "setting": "HLA-B*35:01", "value": "binding partners"}, {"measurement": "binding to HLA-A*32:07", "setting": "HLA-A*32:07", "value": "binding partners"}, {"measurement": "binding to HLA-A*32:15", "setting": "HLA-A*32:15", "value": "binding partners"}, {"measurement": "binding to HLA-A*68:23", "setting": "HLA-A*68:23", "value": "binding partners"}, {"measurement": "binding to HLA-A*24:02", "setting": "HLA-A*24:02", "value": "weak binding"}, {"measurement": "binding to HLA-B*58:01", "setting": "HLA-B*58:01", "value": "binding partners"}]}]}
